Assay results published in patent publication US12577245B2, “Sulfonyl benzamide derivatives as Bcl-2 inhibitors” (ASCENTAGE PHARMA (SUZHOU) CO., LTD., priority 2021, dated 2026).
pIC50: −log10 of the molar value.

target: Bcl-2 G101V (Homo sapiens, UniProt P10415, G101V); assay: Bcl-2 G101V inhibition, fluorescence polarization (Flu-BIM tracer) binding assay; details: not given

SMILES | pIC50
CC1(C)CCC(CN2CCN(c3ccc(C(=O)NS(=O)(=O)c4ccc(NC[C@H]5COCCO5)c([N+](=O)[O-])c4)c(Oc4cnc5[nH]ccc5c4)c3)CC2)=C(c2cc(C(=O)Nc3ccccc3)cs2)C1 [Example 17, (S)-5-(2-((4-(4-(((4-(((1,4-dioxan-2-yl)methyl)amino)-3-nitrophenyl)sulfonyl)carbamoyl)-3-((1H-pyrrolo[2,3-b]pyridin-5-yl)oxy)phenyl)piperazin-1-yl)methyl)-5,5-dimethylcyclohex-1-en-1-yl)-N-phenylthiophene-3-carboxamide] | 7.31

same assay, conditions: FP; 20 nM Bcl2, 5 nM Flu-BIM, 1 h incubation; read-out: Bcl-2 G101V (FP)

SMILES | pIC50
CC1(C)CCC(CN2CCN(c3ccc(C(=O)NS(=O)(=O)c4ccc(NC[C@H]5COCCO5)c([N+](=O)[O-])c4)c(Oc4cnc5[nH]ccc5c4)c3)CC2)=C(c2cc(-c3ccc(F)c(F)c3)cs2)C1 [Example 50, (S)—N-((4-(((1,4-dioxan-2-yl)methyl)amino)-3-nitrophenyl)sulfonyl)-2-((1H-pyrrolo[2,3-b]pyridin-5-yl)oxy)-4-(4-((2-(4-(3,4-difluorophenyl)thiophen-2-yl)-4,4-dimethylcyclohex-1-en-1-yl)methyl)piperazin-1-yl)benzamide] | 7.37
CC(C)c1sccc1C1=C(CN2CCN(c3ccc(C(=O)NS(=O)(=O)c4ccc(NCC5CCOCC5)c([N+](=O)[O-])c4)c(Oc4cnc5[nH]ccc5c4)c3)CC2)CCC(C)(C)C1 [Example 11, 2-((1H-pyrrolo[2,3-b]pyridin-5-yl)oxy)-4-(4-((2-(2-isopropylthiophen-3-yl)-4,4-dimethylcyclohex-1-en-1-yl)-methyl)piperazin-1-yl)-N-((3-nitro-4-(((tetrahydro-2H-pyran-4-yl)methyl)amino)-phenyl)sulfonyl)benzamide] | 7.43
CC1(C)CCC(CN2CCN(c3ccc(C(=O)NS(=O)(=O)c4ccc(NC[C@H]5CC[C@](C)(O)CC5)c([N+](=O)[O-])c4)c(Oc4cnc5[nH]ccc5c4)c3)CC2)=C(c2cc(-c3cc(C(C)(C)O)ccc3F)cs2)C1 [Example 75, 2-((1H-pyrrolo[2,3-b]pyridin-5-yl)oxy)-4-(4-((2-(4-(2-fluoro-5-(2-hydroxypropan-2-yl)phenyl)thiophen-2-yl)-4,4-dimethylcyclohex-1-en-1-yl)methyl)piperazin-1-yl)-N-((4-((((1r,4r)-4-hydroxy-4-methylcyclohexyl)methyl)amino)-3-nitrophenyl)sulfonyl)benzamide] | 7.46
Cc1ccc(C2=C(CN3CCN(c4ccc(C(=O)NS(=O)(=O)c5ccc(NCC6CCOCC6)c([N+](=O)[O-])c5)c(Oc5cnc6[nH]ccc6c5)c4)CC3)CCC(C)(C)C2)s1 [Example 6, 2-((1H-pyrrolo[2,3-b]pyridin-5-yl)oxy)-4-(4-((4,4-dimethyl-2-(5-methylthiophen-2-yl)cyclohex-1-en-1-yl)methyl)piperazin-1-yl)-N-((3-nitro-4-(((tetrahydro-2H-pyran-4-yl)methyl)amino)phenyl)sulfonyl)benzamide] | 7.47
CC1(C)CCC(CN2CCN(c3ccc(C(=O)NS(=O)(=O)c4ccc(NC[C@H]5COCCO5)c([N+](=O)[O-])c4)c(Oc4cnc5[nH]ccc5c4)c3)CC2)=C(c2cc(NC(=O)c3ccccc3)cs2)C1 [Example 18, (S)—N-((4-(((1,4-dioxan-2-yl)methyl)amino)-3-nitrophenyl)sulfonyl)-2-((1H-pyrrolo[2,3-b]pyridin-5-yl)oxy)-4-(4-((2-(4-benzamidothiophen-2-yl)-4,4-dimethylcyclohex-1-en-1-yl)methyl)piperazin-1-yl)benzamide] | 7.18
CC1(C)CCC(CN2CCN(c3ccc(C(=O)NS(=O)(=O)c4ccc(NC[C@H]5CC[C@](C)(O)CC5)c([N+](=O)[O-])c4)c(Oc4cnc5[nH]ccc5c4)c3)CC2)=C(c2cc(-c3ccc(C(O)(C(F)(F)F)C(F)(F)F)cc3)cs2)C1 [Example 60, 2-((1H-pyrrolo[2,3-b]pyridin-5-yl)oxy)-4-(4-((2-(4-(4-(1,1,1,3,3,3-hexafluoro-2-hydroxypropan-2-yl)phenyl)thiophen-2-yl)-4,4-dimethylcyclohex-1-en-1-yl)methyl)piperazin-1-yl)-N-((4-((((1r,4r)-4-hydroxy-4-methylcyclohexyl)methyl)amino)-3-nitrophenyl)sulfonyl)benzamide] | 7.47
C[C@@H]1CN(Cc2csc(C3=C(CN4CCN(c5ccc(C(=O)NS(=O)(=O)c6ccc(NC[C@H]7COCCO7)c([N+](=O)[O-])c6)c(Oc6cnc7[nH]ccc7c6)c5)CC4)CCC(C)(C)C3)c2)C[C@H](C)N1C [Example 29, N-((4-((((S)-1,4-dioxan-2-yl)methyl)amino)-3-nitrophenyl)sulfonyl)-2-((1H-pyrrolo[2,3-b]pyridin-5-yl)oxy)-4-(4-((4,4-dimethyl-2-(4-(((3S,5R)-3,4,5-trimethylpiperazin-1-yl)methyl)thiophen-2-yl)cyclohex-1-en-1-yl)methyl)piperazin-1-yl)benzamide] | 7.15
CC(C)c1ccccc1-c1csc(C2=C(CN3CCN(c4ccc(C(=O)NS(=O)(=O)c5ccc(NC[C@H]6COCCO6)c([N+](=O)[O-])c5)c(Oc5cnc6[nH]ccc6c5)c4)CC3)CCC(C)(C)C2)c1 [Example 39, (S)—N-((4-(((1,4-dioxan-2-yl)methyl)amino)-3-nitrophenyl)sulfonyl)-2-((1H-pyrrolo[2,3-b]pyridin-5-yl)oxy)-4-(4-((2-(4-(2-isopropylphenyl)thiophen-2-yl)-4,4-dimethylcyclohex-1-en-1-yl)methyl)piperazin-1-yl)benzamide] | 7.44
Cc1sccc1C1=C(CN2CCN(c3ccc(C(=O)NS(=O)(=O)c4ccc(NCC5CCOCC5)c([N+](=O)[O-])c4)c(Oc4cnc5[nH]ccc5c4)c3)CC2)CCC(C)(C)C1 [Example 1, 2-((1H-pyrrolo[2,3-b]pyridin-5-yl)oxy)-4-(4-((4,4-dimethyl-2-(2-methylthiophen-3-yl)cyclohex-1-en-1-yl)methyl)piperazin-1-yl)-N-((3-nitro-4-(((tetrahydro-2H-pyran-4-yl)methyl)amino)phenyl)sulfonyl)benzamide] | 7.48
CC1(C)CCC(CN2CCN(c3ccc(C(=O)NS(=O)(=O)c4ccc(NCC5CCOCC5)c([N+](=O)[O-])c4)c(Oc4cnc5[nH]ccc5c4)c3)CC2)=C(c2csc(CN3CCOCC3)c2)C1 [Example 21, 2-((1H-pyrrolo[2,3-b]pyridin-5-yl)oxy)-4-(4-((4,4-dimethyl-2-(5-(morpholinomethyl)thiophen-3-yl)cyclohex-1-en-1-yl)methyl)piperazin-1-yl)-N-((3-nitro-4-(((tetrahydro-2H-pyran-4-yl)methyl)amino)phenyl)sulfonyl)benzamide] | 7.19
CC1(C)CCC(CN2CCN(c3ccc(C(=O)NS(=O)(=O)c4ccc(NCC5CCOCC5)c([N+](=O)[O-])c4)c(Oc4cnc5[nH]ccc5c4)c3)CC2)=C(c2ccc(CN3CCOCC3)s2)C1 [Example 26, 2-((1H-pyrrolo[2,3-b]pyridin-5-yl)oxy)-4-(4-((4,4-dimethyl-2-(5-(morpholinomethyl)thiophen-2-yl)cyclohex-1-en-1-yl)methyl)piperazin-1-yl)-N-((3-nitro-4-(((tetrahydro-2H-pyran-4-yl)methyl)amino)phenyl)sulfonyl)benzamide] | 7.24
CC1(C)CCC(CN2CCN(c3ccc(C(=O)NS(=O)(=O)c4ccc(NC[C@H]5COCCO5)c([N+](=O)[O-])c4)c(Oc4cnc5[nH]ccc5c4)c3)CC2)=C(c2cc(CN3CCN(C4COC4)CC3)cs2)C1 [Example 31, (S)—N-((4-(((1,4-dioxan-2-yl)methyl)amino)-3-nitrophenyl)sulfonyl)-2-((1H-pyrrolo[2,3-b]pyridin-5-yl)oxy)-4-(4-((4,4-dimethyl-2-(4-((4-(oxetan-3-yl)piperazin-1-yl)methyl)thiophen-2-yl)cyclohex-1-en-1-yl)methyl)piperazin-1-yl)benzamide] | 7.23
[2H]C([2H])([2H])C(O)(c1cc(F)c(-c2csc(C3=C(CN4CCN(c5ccc(C(=O)NS(=O)(=O)c6ccc(NC[C@H]7CC[C@](C)(O)CC7)c([N+](=O)[O-])c6)c(Oc6cnc7[nH]ccc7c6)c5)CC4)CCC(C)(C)C3)c2)c(F)c1)C([2H])([2H])[2H] [Example 68, 2-((1H-pyrrolo[2,3-b]pyridin-5-yl)oxy)-4-(4-((2-(4-(2,6-difluoro-4-(2-hydroxypropan-2-yl-1,1,1,3,3,3-d6)phenyl)thiophen-2-yl)-4,4-dimethylcyclohex-1-en-1-yl)methyl)piperazin-1-yl)-N-((4-((((1r,4r)-4-hydroxy-4-methylcyclohexyl)methyl)amino)-3-nitrophenyl)sulfonyl)benzamide] | 7.56
CC1(C)CCC(CN2CCN(c3ccc(C(=O)NS(=O)(=O)c4ccc(NC[C@H]5CC[C@](C)(O)CC5)c([N+](=O)[O-])c4)c(Oc4cnc5[nH]ccc5c4)c3)CC2)=C(c2cc(CN3CCOCC3)cs2)C1 [Example 24, 2-((1H-pyrrolo[2,3-b]pyridin-5-yl)oxy)-4-(4-((4,4-dimethyl-2-(4-(morpholinomethyl)thiophen-2-yl)cyclohex-1-en-1-yl)methyl)piperazin-1-yl)-N-((4-((((1r,4r)-4-hydroxy-4-methylcyclohexyl)methyl)amino)-3-nitrophenyl)sulfonyl)benzamide] | 7.52
CC(C)(O)Cc1ccc(-c2csc(C3=C(CN4CCN(c5ccc(C(=O)NS(=O)(=O)c6ccc(NC[C@H]7CC[C@](C)(O)CC7)c([N+](=O)[O-])c6)c(Oc6cnc7[nH]ccc7c6)c5)CC4)CCC(C)(C)C3)c2)c(F)c1 [Example 73, 2-((1H-pyrrolo[2,3-b]pyridin-5-yl)oxy)-4-(4-((2-(4-(2-fluoro-4-(2-hydroxy-2-methylpropyl)phenyl)thiophen-2-yl)-4,4-dimethylcyclohex-1-en-1-yl)methyl)piperazin-1-yl)-N-((4-((((1r,4r)-4-hydroxy-4-methylcyclohexyl)methyl)amino)-3-nitrophenyl)sulfonyl)benzamide] | 7.60
CC1(C)CCC(CN2CCN(c3ccc(C(=O)NS(=O)(=O)c4ccc(NC[C@H]5COCCO5)c([N+](=O)[O-])c4)c(Oc4cnc5[nH]ccc5c4)c3)CC2)=C(c2cc(CN3CCN4CCOC[C@H]4C3)cs2)C1 [Example 30, N-((4-((((S)-1,4-dioxan-2-yl)methyl)amino)-3-nitrophenyl)sulfonyl)-2-((1H-pyrrolo[2,3-b]pyridin-5-yl)oxy)-4-(4-((2-(4-(((R)-hexahydropyrazino[2,1-c][1,4]oxazin-8(1H)-yl)methyl)thiophen-2-yl)-4,4-dimethylcyclohex-1-en-1-yl)methyl)piperazin-1-yl)benzamide] | 7.18
